Activity calls are given as the source filed them. For most assays here, no stated cut-off is given here; in the data, actives have a measured Kd and inactives only a lower limit.
Experiments:
[1] = molecular target: T1, NUAK family SNF1-like kinase 2 (Homo sapiens, UniProt Q9H093)
T1 sequence (Q9H093 whole entry): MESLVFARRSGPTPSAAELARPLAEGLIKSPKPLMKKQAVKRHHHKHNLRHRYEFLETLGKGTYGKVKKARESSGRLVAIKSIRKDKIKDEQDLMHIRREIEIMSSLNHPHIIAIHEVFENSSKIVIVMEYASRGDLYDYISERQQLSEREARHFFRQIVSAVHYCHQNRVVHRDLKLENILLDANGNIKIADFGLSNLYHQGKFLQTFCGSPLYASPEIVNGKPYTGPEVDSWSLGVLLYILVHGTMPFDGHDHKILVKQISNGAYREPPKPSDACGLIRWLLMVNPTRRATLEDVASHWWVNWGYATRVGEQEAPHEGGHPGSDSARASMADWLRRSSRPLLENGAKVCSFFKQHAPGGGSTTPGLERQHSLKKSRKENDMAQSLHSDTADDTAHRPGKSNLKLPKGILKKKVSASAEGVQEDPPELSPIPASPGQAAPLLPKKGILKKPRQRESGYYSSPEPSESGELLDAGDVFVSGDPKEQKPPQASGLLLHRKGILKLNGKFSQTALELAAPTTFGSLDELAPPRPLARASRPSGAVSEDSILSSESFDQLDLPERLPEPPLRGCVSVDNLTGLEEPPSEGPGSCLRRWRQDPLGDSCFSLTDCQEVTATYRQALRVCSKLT

[2] = molecular target: T2, Glycogen phosphorylase, liver form (Homo sapiens, UniProt P06737); type: subcellular, K-562, COLO 205, SK-N-BE(2) and MV-4-11, Cell lysate; conditions: read-out: Kd apparent
T2 sequence (P06737 whole entry): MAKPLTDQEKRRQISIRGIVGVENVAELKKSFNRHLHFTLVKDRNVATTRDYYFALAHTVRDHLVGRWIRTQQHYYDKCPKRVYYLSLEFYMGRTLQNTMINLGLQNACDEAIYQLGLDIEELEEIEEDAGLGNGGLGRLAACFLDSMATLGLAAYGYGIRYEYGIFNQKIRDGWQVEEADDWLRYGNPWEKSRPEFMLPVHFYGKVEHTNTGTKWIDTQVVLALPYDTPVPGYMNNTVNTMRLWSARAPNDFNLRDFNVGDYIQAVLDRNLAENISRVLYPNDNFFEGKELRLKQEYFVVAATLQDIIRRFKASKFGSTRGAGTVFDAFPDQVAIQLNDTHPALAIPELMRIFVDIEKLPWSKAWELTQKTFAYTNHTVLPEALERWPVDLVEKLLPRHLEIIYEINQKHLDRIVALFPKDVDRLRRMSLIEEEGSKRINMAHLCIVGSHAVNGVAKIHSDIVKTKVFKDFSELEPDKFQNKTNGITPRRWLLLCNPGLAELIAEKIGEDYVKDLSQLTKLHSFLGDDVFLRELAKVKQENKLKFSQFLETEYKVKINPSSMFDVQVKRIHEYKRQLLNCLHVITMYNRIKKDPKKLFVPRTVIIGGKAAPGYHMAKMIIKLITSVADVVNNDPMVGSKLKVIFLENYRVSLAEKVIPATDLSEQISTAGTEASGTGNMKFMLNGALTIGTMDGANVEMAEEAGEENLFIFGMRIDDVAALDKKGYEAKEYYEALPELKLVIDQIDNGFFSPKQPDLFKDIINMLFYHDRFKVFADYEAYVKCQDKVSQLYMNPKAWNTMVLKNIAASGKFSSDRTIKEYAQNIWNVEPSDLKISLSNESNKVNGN

[3] = molecular target: T3, Serine/threonine-protein kinase D2 (Homo sapiens, UniProt Q9BZL6)
T3 sequence (Q9BZL6 whole entry): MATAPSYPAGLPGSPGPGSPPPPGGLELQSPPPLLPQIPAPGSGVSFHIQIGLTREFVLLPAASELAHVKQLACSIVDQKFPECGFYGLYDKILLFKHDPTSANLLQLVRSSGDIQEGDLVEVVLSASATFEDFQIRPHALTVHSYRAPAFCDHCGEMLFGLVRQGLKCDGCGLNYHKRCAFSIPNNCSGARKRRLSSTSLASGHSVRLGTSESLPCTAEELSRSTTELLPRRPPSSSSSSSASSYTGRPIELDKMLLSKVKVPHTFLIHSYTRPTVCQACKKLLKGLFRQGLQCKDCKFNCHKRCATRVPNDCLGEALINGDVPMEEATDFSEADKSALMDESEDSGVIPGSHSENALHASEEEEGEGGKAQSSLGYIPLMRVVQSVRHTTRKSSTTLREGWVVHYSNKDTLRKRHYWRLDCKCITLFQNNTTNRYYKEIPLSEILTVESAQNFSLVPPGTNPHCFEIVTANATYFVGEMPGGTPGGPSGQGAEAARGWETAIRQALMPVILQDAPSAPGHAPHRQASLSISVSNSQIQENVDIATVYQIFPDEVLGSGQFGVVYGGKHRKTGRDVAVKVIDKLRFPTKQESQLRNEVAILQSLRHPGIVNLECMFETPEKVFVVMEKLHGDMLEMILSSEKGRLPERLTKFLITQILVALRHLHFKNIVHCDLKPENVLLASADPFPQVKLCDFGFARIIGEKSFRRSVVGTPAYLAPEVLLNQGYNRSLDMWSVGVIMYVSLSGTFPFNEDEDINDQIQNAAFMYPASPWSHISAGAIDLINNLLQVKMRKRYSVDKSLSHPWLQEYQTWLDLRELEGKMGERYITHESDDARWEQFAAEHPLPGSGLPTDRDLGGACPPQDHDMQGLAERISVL

Focal adhesion kinase 1 = Focal adhesion kinase 1 (Homo sapiens, UniProt Q05397)
Wee1-like protein kinase = Wee1-like protein kinase (Homo sapiens, UniProt P30291)
[4] = molecular target: T4, Phosphorylase b kinase gamma catalytic chain, liver/testis isoform (Homo sapiens, UniProt P15735)
T4 sequence (P15735 whole entry): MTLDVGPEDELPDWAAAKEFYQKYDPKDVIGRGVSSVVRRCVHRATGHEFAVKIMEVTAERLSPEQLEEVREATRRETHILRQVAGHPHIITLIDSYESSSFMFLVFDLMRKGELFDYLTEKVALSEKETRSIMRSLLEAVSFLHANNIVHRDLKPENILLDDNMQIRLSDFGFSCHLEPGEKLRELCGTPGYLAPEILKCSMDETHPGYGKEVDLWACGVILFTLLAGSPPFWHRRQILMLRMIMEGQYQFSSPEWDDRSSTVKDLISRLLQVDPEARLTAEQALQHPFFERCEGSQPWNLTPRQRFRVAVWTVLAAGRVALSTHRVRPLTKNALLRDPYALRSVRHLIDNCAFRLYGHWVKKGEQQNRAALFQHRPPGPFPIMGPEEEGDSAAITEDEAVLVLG

[5] = molecular target: Serine/threonine-protein kinase 16 (Homo sapiens, UniProt O75716)
Serine/threonine-protein kinase 16, sequence (O75716 whole entry): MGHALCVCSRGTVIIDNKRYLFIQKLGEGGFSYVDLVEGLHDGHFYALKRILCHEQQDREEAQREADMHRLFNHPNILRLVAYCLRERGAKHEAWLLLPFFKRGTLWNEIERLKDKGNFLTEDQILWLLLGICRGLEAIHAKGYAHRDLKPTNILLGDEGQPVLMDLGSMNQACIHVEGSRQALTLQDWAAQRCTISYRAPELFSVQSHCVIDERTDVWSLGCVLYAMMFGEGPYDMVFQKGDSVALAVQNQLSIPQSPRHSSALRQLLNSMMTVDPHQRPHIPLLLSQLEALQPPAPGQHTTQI

Wee1-like protein kinase, sequence (P30291 whole entry, canonical isoform): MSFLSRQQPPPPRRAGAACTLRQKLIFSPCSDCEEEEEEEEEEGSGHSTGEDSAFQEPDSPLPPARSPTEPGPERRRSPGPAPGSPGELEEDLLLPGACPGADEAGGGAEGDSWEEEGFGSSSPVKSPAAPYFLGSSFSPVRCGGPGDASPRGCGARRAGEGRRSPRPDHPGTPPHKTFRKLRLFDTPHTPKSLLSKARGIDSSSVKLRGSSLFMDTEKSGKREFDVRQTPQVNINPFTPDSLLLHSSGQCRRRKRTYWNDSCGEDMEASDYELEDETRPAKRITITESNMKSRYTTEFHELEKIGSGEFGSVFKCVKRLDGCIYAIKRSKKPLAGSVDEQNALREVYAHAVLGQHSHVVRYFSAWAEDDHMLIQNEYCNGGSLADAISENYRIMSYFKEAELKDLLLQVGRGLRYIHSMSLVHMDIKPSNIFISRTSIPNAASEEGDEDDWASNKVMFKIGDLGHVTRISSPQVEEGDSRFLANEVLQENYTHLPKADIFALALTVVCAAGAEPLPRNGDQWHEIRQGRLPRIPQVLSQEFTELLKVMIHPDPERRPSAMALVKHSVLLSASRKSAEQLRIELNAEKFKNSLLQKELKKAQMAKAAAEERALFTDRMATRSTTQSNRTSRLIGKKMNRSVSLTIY
Focal adhesion kinase 1, sequence (Q05397 whole entry): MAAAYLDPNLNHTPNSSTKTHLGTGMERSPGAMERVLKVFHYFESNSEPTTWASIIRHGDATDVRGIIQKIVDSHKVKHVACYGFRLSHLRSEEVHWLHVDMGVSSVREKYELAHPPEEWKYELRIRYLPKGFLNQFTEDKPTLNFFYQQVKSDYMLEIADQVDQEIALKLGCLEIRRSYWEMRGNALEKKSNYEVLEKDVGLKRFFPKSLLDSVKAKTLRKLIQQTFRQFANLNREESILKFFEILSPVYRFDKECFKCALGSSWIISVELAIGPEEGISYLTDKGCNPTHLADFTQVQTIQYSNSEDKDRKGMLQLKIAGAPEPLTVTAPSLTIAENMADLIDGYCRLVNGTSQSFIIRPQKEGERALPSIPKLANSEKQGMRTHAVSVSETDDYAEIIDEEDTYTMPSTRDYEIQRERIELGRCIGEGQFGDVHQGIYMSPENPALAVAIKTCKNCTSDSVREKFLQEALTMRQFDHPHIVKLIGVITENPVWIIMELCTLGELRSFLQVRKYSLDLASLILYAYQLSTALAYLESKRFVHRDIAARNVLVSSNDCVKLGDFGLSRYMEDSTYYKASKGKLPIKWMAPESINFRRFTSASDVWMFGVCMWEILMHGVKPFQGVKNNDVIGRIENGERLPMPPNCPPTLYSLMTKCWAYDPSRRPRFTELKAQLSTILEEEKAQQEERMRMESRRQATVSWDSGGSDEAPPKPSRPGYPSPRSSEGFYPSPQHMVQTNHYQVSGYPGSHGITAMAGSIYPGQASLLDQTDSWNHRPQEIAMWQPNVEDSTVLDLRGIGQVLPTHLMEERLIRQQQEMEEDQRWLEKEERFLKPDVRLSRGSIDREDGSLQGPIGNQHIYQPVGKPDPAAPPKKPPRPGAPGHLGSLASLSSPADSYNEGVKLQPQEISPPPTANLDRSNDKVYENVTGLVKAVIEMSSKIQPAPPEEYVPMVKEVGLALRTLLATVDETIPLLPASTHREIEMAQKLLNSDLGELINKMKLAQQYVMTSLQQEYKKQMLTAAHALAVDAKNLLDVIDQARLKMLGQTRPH

Structure (SMILES)	Kd [1]	Kd [2]	Kd [3]	Kd (Focal adhesion kinase 1)	Kd (Wee1-like protein kinase)	Kd [4]	Kd [5]
C[C@@H](Nc1cc(F)cc(F)c1)c1cc(C(=O)N(C)C)cc2c(=O)cc(N3CCOCC3)oc12 [AZD-8186]	> 30 µM (inactive)	> 30 µM (inactive)	> 30 µM (inactive)	> 30 µM (inactive)	> 30 µM (inactive)	> 30 µM (inactive)	> 30 µM (inactive)
CCS(=O)(=O)N1CC(CC#N)(n2cc(-c3ncnc4[nH]ccc34)cn2)C1 [BARICITINIB]	> 30 µM (inactive)	> 30 µM (inactive)	> 30 µM (inactive)	> 30 µM (inactive)	> 30 µM (inactive)	> 30 µM (inactive)	> 30 µM (inactive)
CO[C@H]1C[C@@H]2CC[C@@H](C)[C@@](O)(O2)C(=O)C(=O)N2CCCC[C@H]2C(=O)O[C@H]([C@H](C)C[C@@H]2CC[C@@H](OCCO)[C@H](OC)C2)CC(=O)[C@H](C)/C=C(\C)[C@@H](O)[C@@H](OC)C(=O)[C@H](C)C[C@H](C)/C=C/C=C/C=C/1C [EVEROLIMUS]	> 30 µM (inactive)	> 30 µM (inactive)	> 30 µM (inactive)	> 30 µM (inactive)	> 30 µM (inactive)	> 30 µM (inactive)	> 30 µM (inactive)
COCCNCc1ccc(-c2cc3nccc(Oc4ccc(NC(=S)NC(=O)Cc5ccc(F)cc5)cc4F)c3s2)nc1 [GLESATINIB]	> 30 µM (inactive)	> 30 µM (inactive)	> 30 µM (inactive)	> 30 µM (inactive)	> 30 µM (inactive)	> 30 µM (inactive)	> 30 µM (inactive)
O=C1NC(=O)/C(=C/c2ccc3nccc(-c4ccncc4)c3c2)S1 [GSK-1059615]	> 30 µM (inactive)	> 30 µM (inactive)	> 30 µM (inactive)	> 30 µM (inactive)	> 30 µM (inactive)	> 30 µM (inactive)	> 30 µM (inactive)
CC[C@H](Nc1ncnc2[nH]cnc12)c1nc2cccc(F)c2c(=O)n1-c1ccccc1 [IDELALISIB]	> 30 µM (inactive)	> 30 µM (inactive)	> 30 µM (inactive)	> 30 µM (inactive)	> 30 µM (inactive)	> 30 µM (inactive)	> 30 µM (inactive)
COC(=O)[C@@]1(O)C[C@H]2O[C@]1(C)n1c3ccccc3c3c4c(c5c6ccccc6n2c5c31)C(=O)NC4 [K-252A]	> 30 µM (inactive)	> 30 µM (inactive)	0.03 µM (active)	> 30 µM (inactive)	> 30 µM (inactive)	3.26 µM (active)	> 30 µM (inactive)
Cn1cc(-c2ccc(F)c(C(F)(F)F)c2)nc1C1CCN(c2ncnc3[nH]ncc23)CC1 [LY-2584702]	> 30 µM (inactive)	> 30 µM (inactive)	> 30 µM (inactive)	> 30 µM (inactive)	> 30 µM (inactive)	> 30 µM (inactive)	> 30 µM (inactive)
O=C(O)[C@]1(Cc2cccc(Nc3nccs3)n2)CC[C@@H](Oc2cccc(Cl)c2F)CC1 [MK-5108]	> 30 µM (inactive)	> 30 µM (inactive)	> 30 µM (inactive)	> 30 µM (inactive)	> 30 µM (inactive)	> 30 µM (inactive)	> 30 µM (inactive)

The remaining lines, values ahead:

Kd [1]	Kd [2]	Kd [3]	Kd (Focal adhesion kinase 1)	Kd (Wee1-like protein kinase)	Kd [4]	Kd [5]	Structure (SMILES)
> 30 µM (inactive)	> 30 µM (inactive)	> 30 µM (inactive)	> 30 µM (inactive)	> 30 µM (inactive)	> 30 µM (inactive)	> 30 µM (inactive)	Cc1ccc(NC(=O)c2ccc(CN3CC[C@H](N(C)C)C3)c(C(F)(F)F)c2)cc1Nc1nccc(-c2cncnc2)n1 [BAFETINIB]
0.003 µM	> 30 µM (inactive)	> 30 µM (inactive)	> 30 µM (inactive)	> 30 µM (inactive)	> 30 µM (inactive)	> 30 µM (inactive)	Cc1cc2c(F)c(Oc3ncnn4cc(OC[C@@H](C)OC(=O)[C@H](C)N)c(C)c34)ccc2[nH]1 [BRIVANIB ALANINATE]
> 30 µM (inactive)	> 30 µM (inactive)	> 30 µM (inactive)	> 30 µM (inactive)	> 30 µM (inactive)	> 30 µM (inactive)	> 30 µM (inactive)	CNC(=O)c1ccc(-c2cnc3ncc(Cc4ccc5ncccc5c4)n3n2)cc1F [CAPMATINIB]
> 30 µM (inactive)	> 30 µM (inactive)	> 30 µM (inactive)	> 30 µM (inactive)	> 30 µM (inactive)	> 30 µM (inactive)	> 30 µM (inactive)	COC(=O)N[C@@H](C)CNc1nccc(-c2cn(C(C)C)nc2-c2cc(Cl)cc(NS(C)(=O)=O)c2F)n1 [ENCORAFENIB]
> 30 µM (inactive)	> 30 µM (inactive)	> 30 µM (inactive)	> 30 µM (inactive)	> 30 µM (inactive)	> 30 µM (inactive)	> 30 µM (inactive)	Cn1cc(-c2ccc3nnc(C(F)(F)c4ccc5ncccc5c4)n3n2)cn1 [JNJ-38877605]
> 30 µM (inactive)	> 30 µM (inactive)	> 30 µM (inactive)	> 30 µM (inactive)	> 30 µM (inactive)	> 30 µM (inactive)	> 30 µM (inactive)	COc1cc2nccc(Oc3ccc(NC(=O)NC4CC4)c(Cl)c3)c2cc1C(N)=O [LENVATINIB]
> 30 µM (inactive)	> 30 µM (inactive)	> 30 µM (inactive)	> 30 µM (inactive)	> 30 µM (inactive)	> 30 µM (inactive)	> 30 µM (inactive)	Cc1c(F)cc(C(=O)NC2CC2)cc1-c1ccc(C(=O)NCC(C)(C)C)cn1 [LOSMAPIMOD]
